Results taken from US12377069B2, “Compounds, compositions, methods of using, and methods for preparing compounds” (UNIVERSITY OF LOUISVILLE RESEARCH FOUNDATION, INC., priority 2018, dated 2025).

What was measured:
[1] = test system: Human Umbilical Vein Endothelial Cells (HUVECs); assay: HUVEC CDH5 expression and in vitro permeability; type: cell-based
C57BL/6 mice = assay: DSS-induced acute colitis; type: in vivo, mouse; settings: oral 20 mg/kg on day 4 and 6
Experimental: DSS-induced colitis: Acute experimental colitis in mice was induced by giving 3% (w/v) colitis grade DSS (MP Biomedicals) in drinking water for 7 days. Control animal received drinking water without DSS. All colitis group mice were randomly divided into three groups viz. vehicle treated (0.25% Na-CMC), UroA (20 mg/kg/day) and UAS03 (20 mg/kg/day) on the 4th and 6th day of DSS treatment. After 7 days, animals were put back on regular water for a period of 7 days. For chronic DSS colitis model, we used three cycles of 2.0% (w/v) DSS and each DSS cycle consisted or 7 days followed by 10 days of regular water and mice were treated with UroA (20 mg/kg/day) on every 4th and 6th day of DSS cycle.
Assessment of colitis severity and tissue collection: Mice were evaluated daily for change in body weight, stool consistency and rectal bleeding and score was given and combined to obtained disease activity index (MURTHY et al., (1993) “Treatment of dextran sulfate sodium-induced murine colitis by intracolonic cyclosporin” Dig Dis Sci, Vol. 38, pp. 1722-1734). After euthanasia, the colon was removed and flushed with PBS containing (1 mM PMSF and 0.2 mM sodium orthovanadate). Colon length and colon weight were measured and small parts of colon were excised for myeloperoxidase (MPO) activity and RNA isolation. Tissues for MPO and RNA extraction were snap frozen in liquid nitrogen and stored in −80° C. until further analysis. Tissue for histological examination was stored in 10% phosphate buffered saline formalin. Blood was collected and serum was separated by centrifugation at 3500×g for 15 min. Serum cytokines (IL-6, TNF-α; Biolegend) and chemokines (CXCL1; R&D Systems) levels were measured by ELISA according to manufacturer's instructions.
In vivo intestinal permeability assay: The gut barrier function was evaluated by in vivo intestinal permeability using FITC-Dextran (MW 4000; FD4, Sigma-Aldrich, USA) (FURUTA et al., (2001) “Hypoxia-inducible factor 1-dependent induction of intestinal trefoil factor protects barrier function during hypoxia” J Exp Med, Vol. 193, pp. 1027-1034). Briefly, mice were orally administered with FITC-dextran (60 mg/100 gm body weight). Mice were fasted for 4 h prior to euthanization. The FITC-dextran concentration in serum was determined using the standard curve of FITC-dextran in serum (excitation, 485 nm; emission, 525 nm; BMG LABTECH).

colon explants = assay: Colon explant culture; parameters: species or system mouse; settings: 50 μM, 24 h
Experimental: Colon explant culture: Colon tissue pieces (0.5-1 cm length) from wild type (C57BL/6) or Nrf2^−/− or AhR^−/− mice were cultured in triplicates for 24 h in complete DMEM-high glucose medium (supplemented with 10% fetal bovine serum, 1× penicillin-streptomycin solution) in a humidified atmosphere in the presence of vehicle (0.01% DMSO), UroA (50 μM) or UAS03 (50 μM). The tissues were processed for protein preparation (tissue lysates with RIPA plus buffer) or total RNA isolation. These tissue lysates or RNA were used to determine the expression of Nrf2, Cldn4 and AhR.

Nrf2^−/− mice = assay: TNBS-induced colitis in Nrf2^−/− mice; type: in vivo, mouse; settings: 20 mg/kg every 12 h post TNBS
Experimental: FIG. 7: UroA/UAS03 utilize Nrf2 pathways to mitigate colitis. (A-F) Colitis was induced using TNBS in C57BL/6 (WT) and Nrf2^−/− mice (n=4-5/group 7-8 week old age). Mice were treated with Veh or UroA/UAS03 (20 mg/kg bodyweight) every 12 h post TNBS administration ending at 72 h. Representative data from two independent experiments is shown. (A) TNBS-induced colitis experimental design and treatment regimen. (B) Percent body weight loss (No TNBS− Solid black line; Veh+TNBS− Solid red line; UroA+TNBS− Solid blue line; UAS03+TNBS− Solid purple line), (C) representative colon images, (D) colon lengths, (E) gut permeability, (F) serum levels of IL-6 and TNF-α were determined. Statistical analysis was performed (unpaired t-test) using Graphpad Prism software. Error bars, ±SEM ***p<0.001; **p<0.01 *p<0.05.
2,4,6-Trinitrobenzenesulfonic acid (TNBS)-induced colitis: Male C57BL/6 or Nrf2^−/− mice (6-8 week old age mice) were anesthetized with ketamine/xylazine (100 mg/12.5 mg/kg IP) mixture and administered with single dose of TNBS (2.5 mg/mice; Sigma Aldrich, USA) in 50% ethanol. After administration of TNBS, mice were held upside down for 30-60 sec to ensure proper distribution of TNBS in the colon. Control group received 50% ethanol without TNBS. Mice with TNBS were randomly divided into three groups, viz. vehicle (0.25% sodium carboxymethylcellulose (CMC)), UroA and UAS03. UroA or UAS03 was resuspended in 0.25% sodium-CMC at desired concentrations. The mice were given orally Veh or UroA or UAS03 in 100 μl at desired concentrations (4 or 20 mg/kg/body weight). The treatment started after 12 hours of TNBS administration and every 12 hours thereafter up to 72 hours. The experiment was terminated post 60 h TNBS, where AhR^−/− mice were involved. In some experiments, we treated only once at post 12 h TNBS administration. TNBS administered and control mice were euthanized for tissue and plasma collection after 80 hours of TNBS/ethanol treatment. Mice were examined for colitis phenotype.

SMILES | expression of CDH5 (VE-Cadherin) [1] | 3% DSS induced acute colitis (C57BL/6 mice) | DAI scores during disease progression (C57BL/6 mice) | Cldn4 and NQO1 in Nrf2^−/− and AhR^−/− colon explants (colon explants) | expression of Nrf2, NQO1 and Cldn4 in WT colon explants (colon explants) | barrier function (FITC-dextran leakage) in Nrf2^−/− mice (Nrf2^−/− mice) | body weight loss and colon shortening in Nrf2^−/− mice (Nrf2^−/− mice) | serum IL-6 and TNF-α levels in Nrf2^−/− mice (Nrf2^−/− mice)
O=c1oc2cc(O)ccc2c2ccc(O)cc12 [UroA, 3,8-dihydroxy-6H-dibenzo[b,d]pyran-6-one] | increased the expression of CDH5 | protected from 3% DSS induced acute colitis | overall decreased DAI scores | did not appear to induce | induced the expression | did not enhance barrier function | did not appear to restore body weight loss | partially reduced
Oc1ccc2c(c1)COc1cc(O)ccc1-2 [UAS03, 6H-benzo[c]chromene-3,8-diol] | increased the expression of CDH5 | protected from 3% DSS induced acute colitis | overall decreased DAI scores | did not appear to induce | induced the expression | did not enhance barrier function | did not appear to restore body weight loss | partially reduced
